Reference: patent publication US5270302A, “Derivatives of tetrapeptides as CCK agonists” (priority 1991, dated 1993)
Where a name gives a salt, the structure may show the parent alone. Read-outs that look alike come from different tables or passages of the source. *1 amine or outer side, *2 acyl side, *3 side chain or, on linkers, in order; H or OH if unused. Where a SMILES comes first, the peptide text is derived from it. Side-chain parts run from the residue outwards. [ ]: non-standard residue; d: D form. The star is where a group is joined. Propanoyl(3,3-Ph2) = O=C(CC(c1ccccc1)c1ccccc1)*; Butanoyl(3,3-Me2) = CC(C)(C)CC(=O)*; NMeF = CN[C@@H](Cc1ccccc1)C(=O)O; NMeD = CN[C@@H](CC(=O)O)C(=O)O; NH(2-Me-phenyl) = Cc1ccccc1N*; PhAc = O=C(Cc1ccccc1)*; CO = O=C([*:1])[*:2]; Tfa = O=C(C(F)(F)F)*; X6 = O=C(Oc1ccccc1)*; Bz = O=C(c1ccccc1)*; NHPh = c1ccc(N*)cc1; NHtBu = CC(C)(C)N*; Moc = COC(=O)*

Tests used:
Type-B CCK receptor = target: T1, Type-B CCK receptor (Cavia porcellus, UniProt H0VZC5); assay: Radioligand binding of [125I]BH-CCK-8 in guinea pig cerebral cortical membrane preparations
T1 construct: Cortical and pancreatic membranes were prepared as described; from tissue; host or cells: guinea pig cerebral cortex membranes
T1 sequence (H0VZC5 1-426): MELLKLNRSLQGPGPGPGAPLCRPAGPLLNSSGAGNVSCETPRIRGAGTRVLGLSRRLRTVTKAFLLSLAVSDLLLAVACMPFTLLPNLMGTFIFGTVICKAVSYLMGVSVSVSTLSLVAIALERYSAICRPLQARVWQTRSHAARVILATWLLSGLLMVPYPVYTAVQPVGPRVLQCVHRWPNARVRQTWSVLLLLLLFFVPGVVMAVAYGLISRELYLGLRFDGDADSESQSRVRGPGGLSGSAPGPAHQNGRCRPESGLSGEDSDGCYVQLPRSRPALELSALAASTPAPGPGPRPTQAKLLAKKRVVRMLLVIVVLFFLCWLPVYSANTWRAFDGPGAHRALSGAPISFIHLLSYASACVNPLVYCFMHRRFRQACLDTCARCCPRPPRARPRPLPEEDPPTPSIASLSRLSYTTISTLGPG
From the text: CCK-8 [Asp-Tyr(SO3 H)-Met-Gly-Trp-Met-Asp-PheNH2 ], bestatin and phosphoramidion were purchased from Peptide International (Louisville, Ky.). EGTA (ethylene glycol-bis-(β-aminoethyl) N,N,N',N'-tetraacetic acid), HEPES (4-(2-hydroxyethyl)-1-piperazine-enthanesulfonic acid) and BSA (bovine serum albumin) were purchased from Sigma Chemical Co. (St. Louis, Mo.). [^125 I]-Bolton-Hunteer (BH-CCK-8) (specific activity, 2200 Ci/mmol) was obtained from New England Nuclear (Boston, Mass.). Male guinea pigs, 250 to 325 g, were obtained from Scientific Small Animal Laboratory and Farm (Arlington Heights, Ill.). Collagenase, code CLSPA was purchased from Worthington (Frehold, N.J.).
Protocol For Radioligand Binding Experiments in Guinea Pig Cerebral Cortical and Pancreatic Membrane Preparations
Cortical and pancreatic membranes were prepared as described (Lin and Miller; J. Pharmacol. Exp. Ther. 1985, 232:775-780,). In brief, cortex and pancreas were removed and rinsed with ice-cold saline. Visible fat and connective tissues were removed from the pancreas. […] The homogenates were entrifuged for 10 minutes at 1075×g and pellets were discarded. The supernatants were saved and centrifuged at 38,730×g for 20 minutes. The resultant pellets were rehomogenized in 25 mL of 50 mM Tris-HCl buffer with a Teflon-glass homogenizer, 5 up and down strokes. The homogenates were centrifuged again at 38,730×g for 20 minutes. Pellets werre then resuspended in 20 mM HEPES, containing 1 mM EGTA, 118 mM NaCl, 4.7 mM KCl, 5 mM MgCl2, 100 μM bestatin, 3 μM phosphoramidon, pH 7.4 at 22° C. with a Teflon-glass homogenizer, 15 up and down strokes. Resuspension volume for the cortex was 15-18 mL per gram of original wet weight and 60 mL per gram for the pancreas.
[^125 I]Bolton-Hunter CCK-8 and test compounds were diluted with HEPES-EGTA-salt buffer (see above) containing 0.5% BSA. To 1 mL Skatron polystyrene tubes were added 25 μL of test compounds, 25 μL of [^125 I]BH-CCK-8 and 200 μL of membrane suspension. The final BSA concentration was 0.1%. The cortical tissues were incubated at 30° C. for 150 minutes and pancreatic tissues were incubated at 37° C. for 150 min. Incubations were terminated by filtration using Skatron Cell Harvester and SS32 microfiber filter mats. […] IC50 s were determined from the Hill analysis.

Type-A CCK receptor = target: T2, Type-A CCK receptor (Cavia porcellus, UniProt Q63931); assay: Radioligand binding of [125I]BH-CCK-8 in guinea pig pancreatic membrane preparations
T2 construct: Cortical and pancreatic membranes were prepared as described; from tissue; host or cells: guinea pig pancreas membranes
T2 sequence (Q63931 1-430): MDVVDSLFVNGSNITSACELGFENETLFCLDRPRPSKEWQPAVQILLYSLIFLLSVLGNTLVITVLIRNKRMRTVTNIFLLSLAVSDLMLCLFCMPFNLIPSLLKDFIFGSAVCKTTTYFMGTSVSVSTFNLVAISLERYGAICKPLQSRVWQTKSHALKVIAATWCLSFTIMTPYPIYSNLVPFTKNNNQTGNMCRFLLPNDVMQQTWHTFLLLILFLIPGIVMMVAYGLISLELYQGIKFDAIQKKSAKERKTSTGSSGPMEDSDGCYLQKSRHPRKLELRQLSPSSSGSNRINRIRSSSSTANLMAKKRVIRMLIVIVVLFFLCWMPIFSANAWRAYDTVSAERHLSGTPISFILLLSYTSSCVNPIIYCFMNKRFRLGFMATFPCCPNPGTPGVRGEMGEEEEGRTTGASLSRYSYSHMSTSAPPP
Outline: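 Membranes came from male guinea pig pancreas (type A) or cerebral cortex (type B) and were resuspended in pH 7.4 HEPES-EGTA-salt buffer containing bestatin and phosphoramidon. Test compounds competed with [125I]BH-CCK-8 in 0.1% BSA: cortex 150 min at 30 °C, pancreas 150 min at 37 °C. Reactions ended by filtration; IC50 from Hill analysis.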

[1] = IC50 (nM) 125I-BH-CCK-8 Type-B receptor, guinea pig cortical membranes, 30° C., 150 minutes
[2] = IC50 (nM) 125I-BH-CCK-8 Type-A receptor, guinea pig pancreatic membranes, 37° C., 150 min

Row | Compound | IC50 (Type-B CCK receptor) | IC50 (Type-A CCK receptor) | IC50 (Type-B CCK receptor; [1]) | IC50 (Type-A CCK receptor; [2])
1 | Cc1ccccc1NC(=O)NCCCC[C@H](NC(=O)[C@H](Cc1c[nH]c2ccccc12)NC(=O)Oc1ccccc1)C(=O)N[C@@H](CC(=O)O)C(=O)N(C)[C@@H](Cc1ccccc1)C(N)=O [Example 79, Phenoxycarbonyl-Trp-Lys(ε-N-(2-methylphenyl)aminocarbonyl)-Asp-(NMe)PheNH2] (X6-WK([CO-NH(2-Me-phenyl)])D[NMeF]-NH2) | 7200 nM | 10 nM |  | 
2 | COC(=O)N[C@@H](Cc1c[nH]c2ccccc12)C(=O)N[C@@H](CCCCNC(=O)Nc1ccccc1C)C(=O)N[C@@H](CC(=O)O)C(=O)N(C)[C@@H](Cc1ccccc1)C(N)=O [Example 80, Methoxycarbonyl-Trp-Lys(ε-N-(2-methylphenyl)aminocarbonyl)-Asp-(NMe)PheNH2] (Moc-WK([CO-NH(2-Me-phenyl)])D[NMeF]-NH2) | 5200 nM | 4.8 nM |  | 
3 | COC(=O)N[C@@H](Cc1c[nH]c2ccccc12)C(=O)N[C@@H](CCCCNC(=O)Nc1ccccc1C)C(=O)N(C)[C@@H](CC(=O)O)C(=O)N[C@@H](Cc1ccccc1)C(N)=O [Example 81, Methoxycarbonyl-Trp-Lys(ε-N-(2-methylphenyl)aminocarbonyl)-(NMe)Asp-PheNH2] (Moc-WK([CO-NH(2-Me-phenyl)])[NMeD]F-NH2) |  |  | > 10000 nM | 2.1 nM
4 | Cc1ccccc1NC(=O)NCCCC[C@H](NC(=O)[C@H](Cc1c[nH]c2ccccc12)NC(=O)NC(C)(C)C)C(=O)N[C@@H](CC(=O)O)C(=O)N(C)[C@@H](Cc1ccccc1)C(N)=O [Example 82, t-Butylaminocarbonyl-Trp-Lys(ε-N-(2-methylphenyl)aminocarbonyl)-Asp(NMe)PheNH2] ({NHtBu-CO}-WK([CO-NH(2-Me-phenyl)])D[NMeF]-NH2) | 4400 nM | 4.9 nM |  | 
5 | CNC(=O)N[C@@H](Cc1c[nH]c2ccccc12)C(=O)N[C@@H](CCCCNC(=O)Nc1ccccc1C)C(=O)N[C@@H](CC(=O)O)C(=O)N(C)[C@@H](Cc1ccccc1)C(N)=O [Example 83, Methylaminocarbonyl-Trp-Lys(ε-N-(2-methylphenyl)aminocarbonyl)-Asp-(NMe)PheNH2] ({NHMe-CO}-WK([CO-NH(2-Me-phenyl)])D[NMeF]-NH2) |  |  | 4900 nM | 9.7 nM
6 | Cc1ccccc1NC(=O)NCCCC[C@H](NC(=O)[C@H](Cc1c[nH]c2ccccc12)NC(=O)Nc1ccccc1)C(=O)N[C@@H](CC(=O)O)C(=O)N(C)[C@@H](Cc1ccccc1)C(N)=O [Example 84, Phenylaminocarbonyl-Trp-Lys(ε-N-(2-methylphenyl)aminocarbonyl)-Asp-(NMe)PheNH2] ({NHPh-CO}-WK([CO-NH(2-Me-phenyl)])D[NMeF]-NH2) |  |  | 3000 nM | 3 nM
7 | CC(=O)N[C@@H](Cc1c[nH]c2ccccc12)C(=O)N[C@@H](CCCCNC(=O)Nc1ccccc1C)C(=O)N[C@@H](CC(=O)O)C(=O)N(C)[C@@H](Cc1ccccc1)C(N)=O [Example 85, Acetyl-Trp-Lys(ε-N-(2-methylphenyl)aminocarbonyl)-Asp-(NMe)PheNH2] (Ac-WK([CO-NH(2-Me-phenyl)])D[NMeF]-NH2) |  |  | 10000 nM | 5.8 nM
8 | CC(=O)N[C@@H](Cc1c[nH]c2ccccc12)C(=O)N[C@@H](CCCCNC(=O)Nc1ccccc1C)C(=O)N(C)[C@@H](CC(=O)O)C(=O)N[C@@H](Cc1ccccc1)C(N)=O [Example 86, Acetyl-Trp-Lys(ε-N-(2-methylphenyl)aminocarbonyl)-(NMe)Asp-PheNH2] (Ac-WK([CO-NH(2-Me-phenyl)])[NMeD]F-NH2) |  |  | > 10000 nM | 6.7 nM
9 | Cc1ccccc1NC(=O)NCCCC[C@H](NC(=O)[C@H](Cc1c[nH]c2ccccc12)NC(=O)CC(C)(C)C)C(=O)N[C@@H](CC(=O)O)C(=O)N(C)[C@@H](Cc1ccccc1)C(N)=O [Example 87, t-Butylacetyl-Trp-Lys(ε-N-(2-methylphenyl)aminocarbonyl)-Asp-(NMe)PheNH2] ({Butanoyl(3,3-Me2)}-WK([CO-NH(2-Me-phenyl)])D[NMeF]-NH2) |  |  | 8400 nM | 4.5 nM
10 | Cc1ccccc1NC(=O)NCCCC[C@H](NC(=O)[C@H](Cc1c[nH]c2ccccc12)NC(=O)C(F)(F)F)C(=O)N(C)[C@@H](CC(=O)O)C(=O)N[C@@H](Cc1ccccc1)C(N)=O [Example 88A, trifluoroacetyl-Trp-Lys(ε-N-(2-methylphenyl)aminocarbonyl)-(NMe)Asp-PheNH2] (Tfa-WK([CO-NH(2-Me-phenyl)])[NMeD]F-NH2) |  |  | > 10000 nM | 4.4 nM
11 | Cc1ccccc1NC(=O)NCCCC[C@H](NC(=O)[C@H](Cc1c[nH]c2ccccc12)NC(=O)CC(C)(C)C)C(=O)N(C)[C@@H](CC(=O)O)C(=O)N[C@@H](Cc1ccccc1)C(N)=O [Example 88B, t-butylacetyl-Trp-Lys(ε-N-(2-methylphenyl)aminocarbonyl)-(NMe)Asp-PheNH2] ({Butanoyl(3,3-Me2)}-WK([CO-NH(2-Me-phenyl)])[NMeD]F-NH2) |  |  | > 10000 nM | 3.7 nM
12 | Cc1ccccc1NC(=O)NCCCC[C@H](NC(=O)[C@H](Cc1c[nH]c2ccccc12)NC(=O)c1ccccc1)C(=O)N[C@@H](CC(=O)O)C(=O)N(C)[C@@H](Cc1ccccc1)C(N)=O [Example 89, Benzoyl-Trp-Lys(ε-N-(2-methylphenyl)aminocarbonyl)-Asp-(NMe)PheNH2] (Bz-WK([CO-NH(2-Me-phenyl)])D[NMeF]-NH2) |  |  | 4600 nM | 1.8 nM
13 | Cc1ccccc1NC(=O)NCCCC[C@H](NC(=O)[C@H](Cc1c[nH]c2ccccc12)NC(=O)c1ccccc1)C(=O)N(C)[C@@H](CC(=O)O)C(=O)N[C@@H](Cc1ccccc1)C(N)=O [Example 90, Benzoyl-Trp-Lys(ε-N-(2-methylphenyl)aminocarbonyl)-(NMe)Asp-PheNH2] (Bz-WK([CO-NH(2-Me-phenyl)])[NMeD]F-NH2) |  |  | 5100 nM | 2.7 nM
14 | Cc1ccccc1NC(=O)NCCCC[C@H](NC(=O)[C@H](Cc1c[nH]c2ccccc12)NC(=O)Cc1ccccc1)C(=O)N[C@@H](CC(=O)O)C(=O)N(C)[C@@H](Cc1ccccc1)C(N)=O [Example 91, Phenylacetyl-Trp-Lys(ε-N-(2-methylphenyl)aminocarbonyl)-Asp-(NMe)PheNH2] (PhAc-WK([CO-NH(2-Me-phenyl)])D[NMeF]-NH2) |  |  | > 10000 nM | 19 nM
15 | Cc1ccccc1NC(=O)NCCCC[C@H](NC(=O)[C@H](Cc1c[nH]c2ccccc12)NC(=O)CC(c1ccccc1)c1ccccc1)C(=O)N[C@@H](CC(=O)O)C(=O)N(C)[C@@H](Cc1ccccc1)C(N)=O [Example 92, (3,3-Diphenylpropionyl)-Trp-Lys(ε-N-(2-methylphenyl)aminocarbonyl)-Asp-(NMe)PheNH2] ({Propanoyl(3,3-Ph2)}-WK([CO-NH(2-Me-phenyl)])D[NMeF]-NH2) | 5000 nM | 5.6 nM |  | 
